Test results taken from ChEMBL document CHEMBL3525899, “Identification of the cytochrome P450 and other enzymes involved in the in vitro oxidative metabolism of a novel antidepressant, Lu AA21004” (Drug Metab Dispos, 2012).

Legend:
Cytochrome P450 3A4 = Cytochrome P450 3A4 (Homo sapiens, UniProt P08684); experiment: Activity of human recombinant CYP3A4 expressed in microsomes isolated from human AHH-1 cells assessed as enzyme-mediated 3-(2,4-dimethylphenylthio)-4-(piperazin-1-yl)phenol formation at 8 to 50 uM after 120 mins by HPLC/MS-MS analysis in presence of NADPH regenerating system with NADP+; assay type: ADME, cell-free; details: 2 h
Cytochrome P450 3A4, sequence (P08684 whole entry): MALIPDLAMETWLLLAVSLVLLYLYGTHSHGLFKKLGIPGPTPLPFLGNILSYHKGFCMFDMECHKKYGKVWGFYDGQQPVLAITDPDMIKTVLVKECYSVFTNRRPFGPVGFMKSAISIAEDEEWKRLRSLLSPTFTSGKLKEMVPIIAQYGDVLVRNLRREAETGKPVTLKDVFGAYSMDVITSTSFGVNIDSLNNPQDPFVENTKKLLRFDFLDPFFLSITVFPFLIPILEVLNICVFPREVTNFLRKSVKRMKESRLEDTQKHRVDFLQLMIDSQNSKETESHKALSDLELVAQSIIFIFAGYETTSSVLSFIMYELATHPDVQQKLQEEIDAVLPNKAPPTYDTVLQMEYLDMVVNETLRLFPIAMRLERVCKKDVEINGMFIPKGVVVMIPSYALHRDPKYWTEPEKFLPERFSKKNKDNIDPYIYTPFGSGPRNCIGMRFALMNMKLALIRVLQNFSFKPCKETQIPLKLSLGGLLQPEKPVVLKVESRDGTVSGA

Cytochrome P450 2B6 = biological target: T1, Cytochrome P450 2B6 (Homo sapiens, UniProt P20813); experiment: Activity of human recombinant CYP2B6 expressed in microsomes isolated from human AHH-1 cells assessed as enzyme-mediated 3-(2,4-dimethylphenylthio)-4-(piperazin-1-yl)phenol formation at 8 to 50 uM after 120 mins by HPLC/MS-MS analysis in presence of NADPH regenerating system with NADP+; assay type: ADME, cell-free; details: 2 h
T1 sequence (P20813 whole entry): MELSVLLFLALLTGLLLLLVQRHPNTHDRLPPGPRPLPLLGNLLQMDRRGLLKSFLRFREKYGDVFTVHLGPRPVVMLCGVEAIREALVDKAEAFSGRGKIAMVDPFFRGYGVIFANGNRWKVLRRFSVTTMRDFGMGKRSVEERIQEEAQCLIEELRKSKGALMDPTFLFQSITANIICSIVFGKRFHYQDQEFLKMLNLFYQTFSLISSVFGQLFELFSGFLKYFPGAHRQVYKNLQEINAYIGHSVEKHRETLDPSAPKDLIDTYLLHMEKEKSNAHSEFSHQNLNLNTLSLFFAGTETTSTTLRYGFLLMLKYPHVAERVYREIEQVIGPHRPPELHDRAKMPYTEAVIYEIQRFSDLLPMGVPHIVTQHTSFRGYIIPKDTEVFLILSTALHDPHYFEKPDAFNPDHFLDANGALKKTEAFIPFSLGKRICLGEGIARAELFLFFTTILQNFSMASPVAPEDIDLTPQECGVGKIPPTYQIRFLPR

Liver microsome [1] = experiment: Drug metabolism in pooled human liver microsomes assessed as formation of 4-(2-(2,4-dimethylphenylthio)phenyl)piperazin-1-ol after 30 mins by Michaelis-Menten plot analysis in presence of NADPH regenerating system with NADP+; assay type: ADME; details: 0.5 h, read-out: Km(app)
Liver microsome [2] = experiment: Drug metabolism in phenotyped human liver microsomes assessed as formation of (3-methyl-4-(2-(piperazin-1-yl)phenylthio)phenyl)methanol at 8 to 50 uM after 60 mins by HPLC/MS-MS analysis in presence of NADPH regenerating system with NADP+; assay type: ADME; details: 1 h
Liver microsome [3] = experiment: Drug metabolism in pooled human liver microsomes at 100 uM after 30 to 180 mins by HPLC/MS-MS analysis in absence of NADPH regenerating system with NADP+; assay type: ADME
Liver microsome [4] = experiment: Drug metabolism in pooled human liver microsomes at 100 uM after 30 to 180 mins by HPLC/MS-MS analysis in presence of NADPH regenerating system without NADP+; assay type: ADME
Liver microsome [5] = experiment: Drug metabolism in pooled human liver microsomes assessed as formation of 4-(2-(2,4-dimethylphenylthio)phenyl)piperazin-1-ol at 100 uM after 30 to 180 mins by HPLC/MS-MS analysis in presence of NADPH regenerating system with NADP+; assay type: ADME
Cytochrome P450 2D6 = Cytochrome P450 2D6 (Homo sapiens, UniProt P10635); experiment: Activity of human recombinant CYP2D6 expressed in microsomes isolated from human AHH-1 cells assessed as enzyme-mediated (3-methyl-4-(2-(piperazin-1-yl)phenylthio)phenyl)methanol formation at 8 to 50 uM after 120 mins by HPLC/MS-MS analysis in presence of NADPH regenerating system with NADP+; assay type: ADME, cell-free; details: 2 h
Cytochrome P450 2D6, sequence (P10635 whole entry): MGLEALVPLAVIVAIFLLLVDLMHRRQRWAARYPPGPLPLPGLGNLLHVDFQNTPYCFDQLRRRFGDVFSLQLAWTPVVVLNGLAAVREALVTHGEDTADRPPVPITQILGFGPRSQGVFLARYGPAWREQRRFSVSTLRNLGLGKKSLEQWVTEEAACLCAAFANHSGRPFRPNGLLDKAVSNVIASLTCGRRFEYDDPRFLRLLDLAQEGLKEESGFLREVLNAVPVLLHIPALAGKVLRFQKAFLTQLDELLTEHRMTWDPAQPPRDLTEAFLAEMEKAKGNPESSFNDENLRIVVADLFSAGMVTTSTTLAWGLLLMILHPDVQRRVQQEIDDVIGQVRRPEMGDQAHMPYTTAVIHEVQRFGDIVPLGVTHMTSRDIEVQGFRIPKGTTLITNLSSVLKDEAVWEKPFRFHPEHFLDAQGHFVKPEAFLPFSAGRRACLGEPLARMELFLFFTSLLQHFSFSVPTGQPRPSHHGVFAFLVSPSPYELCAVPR

Cytochrome P450 2E1 = Cytochrome P450 2E1 (Homo sapiens, UniProt P05181); experiment: Activity of human recombinant CYP2E1 expressed in microsomes isolated from human AHH-1 cells assessed as enzyme-mediated 3-(2,4-dimethylphenylthio)-4-(piperazin-1-yl)phenol formation at 8 to 50 uM after 120 mins by HPLC/MS-MS analysis in presence of NADPH regenerating system with NADP+; assay type: ADME, cell-free; details: 2 h
Cytochrome P450 2E1, sequence (P05181 whole entry): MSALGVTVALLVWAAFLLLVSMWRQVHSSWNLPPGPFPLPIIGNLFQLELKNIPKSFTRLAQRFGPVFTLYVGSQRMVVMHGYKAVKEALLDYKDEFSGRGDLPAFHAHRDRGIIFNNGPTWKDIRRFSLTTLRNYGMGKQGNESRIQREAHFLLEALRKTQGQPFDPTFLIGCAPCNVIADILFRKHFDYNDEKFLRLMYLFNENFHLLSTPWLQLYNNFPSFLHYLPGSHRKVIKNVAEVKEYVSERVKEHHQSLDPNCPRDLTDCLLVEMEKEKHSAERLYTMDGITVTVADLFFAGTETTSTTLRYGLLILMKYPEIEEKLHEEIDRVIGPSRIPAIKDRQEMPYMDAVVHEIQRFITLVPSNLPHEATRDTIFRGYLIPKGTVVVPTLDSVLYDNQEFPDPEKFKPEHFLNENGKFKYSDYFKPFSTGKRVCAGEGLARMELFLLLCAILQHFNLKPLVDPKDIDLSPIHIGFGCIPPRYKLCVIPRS

Liver microsome [6] = experiment: Intrinsic clearance in pooled human liver microsomes assessed as Vmax(app)/Km(app) for formation of (3-methyl-4-(2-(piperazin-1-yl)phenylthio)phenyl)methanol per mg of protein after 30 mins by Michaelis-Menten plot analysis in presence of NADPH regenerating system with NADP+; assay type: ADME; details: 0.5 h

Drug metabolism (Cytochrome P450 3A4): metabolite_not_detected | Drug metabolism (Cytochrome P450 2B6): metabolite_not_detected | Km (Liver microsome [1]): 300 µM | Drug metabolism (Liver microsome [2]): metabolite_detected | Drug metabolism (Liver microsome [3]): metabolite_not_detected | Drug metabolism (Liver microsome [4]): metabolite_not_detected | Drug metabolism (Liver microsome [5]): metabolite_detected | Drug metabolism (Cytochrome P450 2D6): metabolite_detected | Drug metabolism (Cytochrome P450 2E1): metabolite_not_detected | Vmax/Km (Liver microsome [6]): 1.13 µL/min
SMILES: Br.Cc1ccc(Sc2ccccc2N2CCNCC2)c(C)c1 [VORTIOXETINE HYDROBROMIDE]
